Substitutions are numbered along the chain they refer to.

These results are taken from patent US8211945B2, “Carba-sugar amine derivative and glycolipid metabolic disorder treating agent containing the same as active ingredient” (Seikagaku Corporation, priority 2001, dated 2012).

Common to all, as to test: Mutant β-galactosidase activity in model cells, 4 days culture
Assay type in all cases: cell-based

The target in assay [1] is T1, human mutant β-galactosidase R482C (Homo sapiens, UniProt P16278, R482C).
T1 construct: expressed in transfected cells; host or cells: SV40-immortalized skin fibroblasts of a β-galactosidase-deficient knockout mouse
T1 sequence (P16278 29-677 R482C): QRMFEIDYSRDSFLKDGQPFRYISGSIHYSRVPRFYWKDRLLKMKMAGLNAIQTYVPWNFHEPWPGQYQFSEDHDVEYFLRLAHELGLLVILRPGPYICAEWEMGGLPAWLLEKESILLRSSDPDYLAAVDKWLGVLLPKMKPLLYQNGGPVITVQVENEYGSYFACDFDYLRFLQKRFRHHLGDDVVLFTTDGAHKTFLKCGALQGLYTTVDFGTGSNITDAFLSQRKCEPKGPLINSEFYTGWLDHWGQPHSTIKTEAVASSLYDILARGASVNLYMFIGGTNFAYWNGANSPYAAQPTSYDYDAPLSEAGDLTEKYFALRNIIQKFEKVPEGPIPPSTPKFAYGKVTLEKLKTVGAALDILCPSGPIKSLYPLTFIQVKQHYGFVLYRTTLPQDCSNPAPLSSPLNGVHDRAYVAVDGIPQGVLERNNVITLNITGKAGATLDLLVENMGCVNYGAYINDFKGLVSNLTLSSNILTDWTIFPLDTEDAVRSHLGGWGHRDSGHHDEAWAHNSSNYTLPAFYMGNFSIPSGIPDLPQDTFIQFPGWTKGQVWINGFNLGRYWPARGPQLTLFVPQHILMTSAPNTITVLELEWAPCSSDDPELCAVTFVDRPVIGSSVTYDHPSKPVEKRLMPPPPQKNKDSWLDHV
The source says:
(§1) Cultured skin fibroblasts of a β-galactosidase-deficient knockout mouse was immortalized by introducing an SV40 viral gene, and enzyme genes integrated into pSV2neo and an expression vector were also introduced simultaneously, thereby establishing a model cell (Brain Dev., 23(5), 284-287, 2001). The genes used are human normal (GP8) and mutant β-galactosidase gene Y316C, G123R (infantile GM1-gangliosidosis), R201C (juvenile GM1-gangliosidosis), 151T, T82M, R201H, R263S, R457Q (adult GM1-gangliosidosis), W273L, Y83H, R482H and R482C (Morquio-B disease) (Hum. Genet., 93(2), 109-114, 1994).
(§2) As a control substance, 0.5 mM N-(n-butyl)-deoxygalactonojirimycin (NB-DGJ: The Journal of Biological Chemistry, 269, 27108-27114 (1994)) was used, and the substance 18 of the present invention was used in an amount of 0.2 μM.
(§3) Specifically, after culturing the model cell for 4 days using a cell culture medium (10% FCS DMEM) containing the substance 18 of the present invention, the resulting cells were recovered and diluted such that the amount of protein in the suspension became a predetermined level, and then enzyme activity in the diluted suspension was measured. Using 4-methylumbelliferyl-β-D-galactopyranoside as the fluorescent substrate, the enzyme activity during 30 minutes was measured at 37° C.

Assay [2] addresses T2, human mutant β-galactosidase R482H (Homo sapiens, UniProt P16278, R482H).
T2 construct: expressed in transfected cells; host or cells: SV40-immortalized skin fibroblasts of a β-galactosidase-deficient knockout mouse
T2 sequence (P16278 29-677 R482H): T1 sequence (P16278 29-677 R482C) with C454H
Description: as §1, §2, §3

Assay [3] deals with T3, human mutant β-galactosidase Y316C (Homo sapiens, UniProt P16278, Y316C).
T3 construct: expressed in transfected cells; host or cells: SV40-immortalized skin fibroblasts of a β-galactosidase-deficient knockout mouse
T3 sequence (P16278 29-677 Y316C): T1 sequence (P16278 29-677 R482C) with Y288C, C454R
Description: as §1, §2, §3

Take `CCCCN1C[C@H](O)[C@@H](O)[C@@H](O)[C@H]1CO` [Control, N-(n-butyl)-deoxygalactonojirimycin, reference compound]: the “enzyme activity, Control” value in assay [1] (transferred gene R482C, control substance 0.5 mM NB-DGJ) is reported as 0.14; in assay [2] (transferred gene R482H, control substance 0.5 mM NB-DGJ), 0.50; in assay [3] (transferred gene Y316C, control substance 0.5 mM NB-DGJ) it was 0.23.
Take `CCCCCCCCN[C@@H]1C=C(CO)[C@H](O)C(O)[C@@H]1O` (stereo partly drawn) [Substance 18, N-octyl-5a-carba-α-L-arabino-hexo-5(5a)-enopyranosylamine]: the “Relative ratio (×100%)” value is recorded as 4.25 ×100% in assay [1] (R482C, substance 18 vs control); 2.50 ×100% in assay [2] (R482H, substance 18 vs control); 3.44 ×100% in assay [3] (Y316C, substance 18 vs control). For the same compound, the enzyme activity in assay [1] (transferred gene R482C, 0.2 μM, 4 days) is listed as 0.62; in assay [2] (transferred gene R482H, 0.2 μM, 4 days) it was 1.24; in assay [3] (transferred gene Y316C, 0.2 μM, 4 days), 0.80.
